# Data as given in US10501460B2, “Heterocyclic compounds and uses thereof” (Plexxikon Inc., priority 2013, dated 2019).
# What was measured:
# MV-4-11 = experiment: Oncology cell growth assay MV-4-11 (CellTiter Glo, 72 hours); assay type: cell-based; details: Homo sapiens, MV4-11, 72 h; MV-4-11 cell growth inhibitory activity, 3d
# Excerpt: Published bromodomain inhibitors JQ1 and iBET 151 have shown activity in variety of cancer cells such leukemia and lymphoma, multiple myeloma cells, NUT midline carcinoma and glioblastoma cells (Dawson M A et al. 2011; Delmore J E 2011; Chen Z et al. 2013; Filippakopoulos P et al. 2010; Mertz J A et al. 2011; Ott C J et al. 2012). In this study, we test compounds in different cancer cell lines. MV-4-11 and MOLM-13 are AML cell lines harboring a MLL-AF4 and MLL-AF9 translocation, respectively. MM.1S is a multiple myeloma cell line. SK-N-AS, IMR-32 and SK-N-BE(2) are neuroblastoma cell lines. IMR-32 and SK-N-BE(2) cell lines harbor MYCN amplifications. MV-4-11, MM.1S, IMR-32, SK-N-AS and SK-N-BE(2) were obtained from ATCC (IL, USA) and MOLM-13 were purchased from DSMZ (Braunschweig, German). Cells are cultured as recommended by their sources. For growth inhibition studies 3000 cells are seeded in wells of a 96-well plate in 75 μL of culture media. After several hours, growth media containing compounds of formula (I) are added to the wells. Compound at a maximal concentration of 5 mM was serially diluted 1:3 for a total of 8 point titration with DMSO as a control. A 1 μL aliquot of each dilution point is added to 249 μL growth media and 75 μL is added to each well containing cells, providing 10 μM compound at the maximum concentration point. The final concentration of DMSO in all wells is 0.2%. Cells are incubated for 72 hours, and 25 μL of CellTiter Glo Reagent (Promega Ga., USA) is added to each well. Plates are shaken for approximately 10 minutes and chemiluminescent signal is read on Tecan microplate reader. The measured luminescence correlates directly with cell number.
# All data is normalized to the mean of eight DMSO high control wells on each plate. A four parameter curve fit of the following formula was then applied: Y=a+(b−a)/(1+(x/c)^d) Where ‘a’ is the minimum, ‘b’ is the maximum, ‘c’ is the pIC50 and ‘d’ is the Hill slope. […] Myc Reporter Assay
# The following table provides data indicating the BRD4 biochemical inhibitory activity and MV-4-11 cell growth inhibitory activity for exemplary compounds as described herein.
# bromodomain = experiment: Bromodomain cell assays of Example 40 (at least one of them); assay type: cell-based; details: in at least one of the bromodomain cell assays described in Example 40
# In short: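 Growth inhibition: 3000 MV-4-11, MOLM-13, MM.1S or neuroblastoma cells/well got an 8-point 1:3 series from 10 μM top (0.2% DMSO) for 72 h, then CellTiter-Glo luminescence. Myc reporter: MV-4-11 with E-box firefly luciferase, 24 h exposure, One-Glo luminescence plus CellTiter-Fluo cell count. pIC50 from four-parameter fit.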
IC50 (MV-4-11),IC50 (bromodomain),SMILES
≤ 1 µM,< 10 µM,"Cc1noc(C)c1-c1cnc2[nH]cc(C(c3ccc(F)cc3)C3CC3)c2c1 (centres unmarked) [P-0064, 4-[3-[cyclopropyl-(4-fluorophenyl)methyl]-1H-pyrrolo[2,3-b]pyridin-5-yl]-3,5-dimethyl-isoxazole]"
≤ 1 µM,< 10 µM,"Cc1noc(C)c1-c1cnc2ccn(S(=O)(=O)C3CCCCC3)c2c1 [P-0066, 4-(1-cyclohexylsulfonylpyrrolo [3,2-b]pyridin-6-yl)-3,5-dimethyl-isoxazole]"
1 to 10 µM,< 10 µM,"COC(c1cn(S(=O)(=O)C2CCCCC2)c2cc(-c3c(C)noc3C)cnc12)C1CC1 (centres unmarked) [P-0071, 4-[1-cyclohexylsulfonyl-3-[cyclopropyl(methoxy)methyl]pyrrolo[3,2-b]pyridin-6-yl]-3,5-dimethyl-isoxazole]"
≤ 1 µM,< 10 µM,"COC(c1c[nH]c2ncc(-c3c(C)noc3C)cc12)C1CCC(F)(F)CC1 (centres unmarked) [P-0073, 4-[3-[(4,4-difluorocyclohexyl)-methoxy-methyl]-1H-pyrrolo[2,3-b]pyridin-5-yl]-3,5-dimethyl-isoxazole]"
1 to 10 µM,< 10 µM,"Cc1noc(C)c1-c1cnc2c(CC3CC3)cn(S(=O)(=O)C3CCCCC3)c2c1 [P-0075, 4-[1-cyclohexylsulfonyl-3-(cyclopropylmethyl)pyrrolo [3,2-b]pyridin-6-yl]-3,5-dimethyl-isoxazole]"
≤ 1 µM,< 10 µM,"Cc1noc(C)c1-c1cnc2c(I)cn(S(=O)(=O)c3ccccc3)c2c1 [P-0076, 4-[1-(benzenesulfonyl)-3-iodo-pyrrolo[3,2-b]pyridin-6-yl]-3,5-dimethyl-isoxazole]"
1 to 10 µM,< 10 µM,"Cc1noc(C)c1-c1cnc2c(-c3ccccc3)cn(S(=O)(=O)c3ccccc3)c2c1 [P-0077, 4-[1-(benzenesulfonyl)-3-phenyl-pyrrolo[3,2-b]pyridin-6-yl]-3,5-dimethyl-isoxazole]"
1 to 10 µM,< 10 µM,"CCS(=O)(=O)n1cc(C(OC)C2CCC(F)(F)CC2)c2cc(-c3c(C)noc3C)cnc21 (centres unmarked) [P-0078, 4-[3-[(4,4-difluorocyclohexyl)-methoxy-methyl]-1-ethylsulfonyl-pyrrolo[2,3-b]pyridin-5-yl]-3,5-dimethyl-isoxazole]"
≤ 1 µM,< 10 µM,"Cc1noc(C)c1-c1cnc2c(-c3cccnc3)cn(S(=O)(=O)c3ccccc3)c2c1 [P-0084, 4-[1-(benzenesulfonyl)-3-(3-pyridyl)pyrrolo[3,2-b]pyridin-6-yl]-3,5-dimethyl-isoxazole]"
1 to 10 µM,< 10 µM,"Cc1noc(C)c1-c1cnc2[nH]cc(C(c3ccc(F)cc3)(C3CC3)C3CC3)c2c1 [P-0085, 4-[3-[dicyclopropyl-(4-fluorophenyl)methyl]-1H-pyrrolo[2,3-b]pyridin-5-yl]-3,5-dimethyl-isoxazole]"
1 to 10 µM,< 10 µM,"COC(c1c[nH]c2ncc(-c3c(C)noc3C)cc12)C1CCS(=O)(=O)CC1 (centres unmarked) [P-0089, 4-[[5-(3,5-dimethylisoxazol-4-yl)-1H-pyrrolo[2,3-b]pyridin-3-yl]-methoxy-methyl]thiane 1,1-dioxide]"
1 to 10 µM,< 10 µM,"Cc1noc(C)c1-c1cnc2c(c1)c(C(O)C1CCSCC1)cn2S(=O)(=O)c1ccccc1 (centres unmarked) [P-0090, [1-(benzenesulfonyl)-5-(3,5-dimethylisoxazol-4-yl)pyrrolo[2,3-b]pyridin-3-yl]-tetrahydrothiopyran-4-yl-methanol]"
1 to 10 µM,< 10 µM,"Cc1noc(C)c1-c1cnc2[nH]cc(CC3CCS(=O)(=O)CC3)c2c1 [P-0098, 4-[[5-(3,5-dimethylisoxazol-4-yl)-1H-pyrrolo[2,3-b]pyridin-3-yl]methyl]thiane 1,1-dioxide]"
1 to 10 µM,< 10 µM,"Cc1noc(C)c1-c1cnc2c(-c3cnc(C4CC4)nc3)cn(S(=O)(=O)C3CCCC3)c2c1 [P-0103, 4-[1-cyclopentylsulfonyl-3-(2-cyclopropylpyrimidin-5-yl)pyrrolo[3,2-b]pyridin-6-yl]-3,5-dimethyl-isoxazole]"
1 to 10 µM,< 10 µM,"COc1ncc(-c2cn(S(=O)(=O)c3ccccc3)c3cc(-c4c(C)noc4C)cnc23)cn1 [P-0104, 4-[1-(benzenesulfonyl)-3-(2-methoxypyrimidin-5-yl)pyrrolo[3,2-b]pyridin-6-yl]-3,5-dimethyl-isoxazole]"
1 to 10 µM,< 10 µM,"COc1ncc(-c2cn(S(=O)(=O)C3CCCC3)c3cc(-c4c(C)noc4C)cnc23)cn1 [P-0105, 4-[1-cyclopentylsulfonyl-3-(2-methoxypyrimidin-5-yl)pyrrolo[3,2-b]pyridin-6-yl]-3,5-dimethyl-isoxazole]"
≤ 1 µM,< 10 µM,"Cc1noc(C)c1-c1cnc2c(c1)c(CC1CCN(C(=O)C(F)(F)F)CC1)cn2C [P-0106, 1-[4-[[5-(3,5-dimethylisoxazol-4-yl)-1-methyl-pyrrolo[2,3-b]pyridin-3-yl]methyl]-1-piperidyl]-2,2,2-trifluoro-ethanone]"
≤ 1 µM,< 10 µM,"Cc1noc(C)c1-c1cnc2c(-c3cnn(C)c3)cn(S(=O)(=O)c3ccccc3)c2c1 [P-0110, 4-[1-(benzenesulfonyl)-3-(1-methylpyrazol-4-yl)pyrrolo[3,2-b]pyridin-6-yl]-3,5-dimethyl-isoxazole]"
≤ 1 µM,< 10 µM,"CCCS(=O)(=O)n1cc(-c2cnn(C)c2)c2ncc(-c3c(C)noc3C)cc21 [P-0111, 3,5-dimethyl-4-[3-(1-methylpyrazol-4-yl)-1-propylsulfonyl-pyrrolo [3,2-b]pyridin-6-yl] isoxazole]"
≤ 1 µM,< 10 µM,"Cc1noc(C)c1-c1cnc2c(-c3cnn(C)c3)cn(S(=O)(=O)C3CCCC3)c2c1 [P-0112, 4-[1-cyclopentylsulfonyl-3-(1-methylpyrazol-4-yl)pyrrolo[3,2-b]pyridin-6-yl]-3,5-dimethyl-isoxazole]"
1 to 10 µM,< 10 µM,"Cc1noc(C)c1-c1cnc2c(c1)c(CC1CCN(S(=O)(=O)c3ccccc3)CC1)cn2C [P-0113, 4-[3-[[1-(benzenesulfonyl)-4-piperidyl]methyl]-1-methyl-pyrrolo[2,3-b]pyridin-5-yl]-3,5-dimethyl-isoxazole]"
≤ 1 µM,< 10 µM,"Cc1noc(C)c1-c1cnc2c(c1)c(CC1CCN(C(=O)c3ccccc3)CC1)cn2C [P-0115, [4-[[5-(3,5-dimethylisoxazol-4-yl)-1-methyl-pyrrolo[2,3-b]pyridin-3-yl]methyl]-1-piperidyl]-phenyl-methanone]"
≤ 1 µM,< 10 µM,"CCNC(=O)N1CCC(Cc2cn(C)c3ncc(-c4c(C)noc4C)cc23)CC1 [P-0117, 4-[[5-(3,5-dimethylisoxazol-4-yl)-1-methyl-pyrrolo[2,3-b]pyridin-3-yl]methyl]-N-ethyl-piperidine-1-carboxamide]"
≤ 1 µM,< 10 µM,"CCC(c1cn(C)c2ncc(-c3c(C)noc3C)cc12)C1CCC(F)(F)CC1 (centres unmarked) [P-0118, 4-[3-[1-(4,4-difluorocyclohexyl)propyl]-1-methyl-pyrrolo[2,3-b]pyridin-5-yl]-3,5-dimethyl-isoxazole]"
1 to 10 µM,< 10 µM,"CC(=O)N1CCC(Cc2cn(C)c3ncc(-c4c(C)noc4C)cc23)CC1 [P-0120, 1-[4-[[5-(3,5-dimethylisoxazol-4-yl)-1-methyl-pyrrolo[2,3-b]pyridin-3-yl]methyl]-1-piperidyl]ethanone]"
≤ 1 µM,< 10 µM,"Cc1noc(C)c1-c1cnc2c(-c3cnn(C)c3)cn(S(=O)(=O)c3ccccc3F)c2c1 [P-0121, 4-[1-(2-fluorophenyl)sulfonyl-3-(1-methylpyrazol-4-yl)pyrrolo[3,2-b]pyridin-6-yl]-3,5-dimethyl-isoxazole]"
≤ 1 µM,< 10 µM,"Cc1noc(C)c1-c1cnc2c(-c3cnn(C)c3)cn(S(=O)(=O)c3cccc(F)c3)c2c1 [P-0122, 4-[1-(3-fluorophenyl)sulfonyl-3-(1-methylpyrazol-4-yl)pyrrolo[3,2-b]pyridin-6-yl]-3,5-dimethyl-isoxazole]"
≤ 1 µM,< 10 µM,"Cc1noc(C)c1-c1cnc2c(-c3cnn(C)c3)cn(S(=O)(=O)c3ccc(F)cc3)c2c1 [P-0123, 4-[1-(4-fluorophenyl)sulfonyl-3-(1-methylpyrazol-4-yl)pyrrolo[3,2-b]pyridin-6-yl]-3,5-dimethyl-isoxazole]"
